{"source": "paper PMC9413491", "about": "“A Novel and Cross-Species Active Mammalian INDY (NaCT) Inhibitor Ameliorates Hepatic Steatosis in Mice with Diet-Induced Obesity” (Metabolites, 2022)", "key": {"human NaDC3 (SLC13A3)": {"molecular_target": "T1, human NaDC3 (SLC13A3) (Homo sapiens, UniProt Q8WWT9)", "T1 construct": "expressed in transfected cells; host or cells: HEK293 (HEK-NaDC3), hygromycin selection", "T1 sequence (Q8WWT9 1-602)": "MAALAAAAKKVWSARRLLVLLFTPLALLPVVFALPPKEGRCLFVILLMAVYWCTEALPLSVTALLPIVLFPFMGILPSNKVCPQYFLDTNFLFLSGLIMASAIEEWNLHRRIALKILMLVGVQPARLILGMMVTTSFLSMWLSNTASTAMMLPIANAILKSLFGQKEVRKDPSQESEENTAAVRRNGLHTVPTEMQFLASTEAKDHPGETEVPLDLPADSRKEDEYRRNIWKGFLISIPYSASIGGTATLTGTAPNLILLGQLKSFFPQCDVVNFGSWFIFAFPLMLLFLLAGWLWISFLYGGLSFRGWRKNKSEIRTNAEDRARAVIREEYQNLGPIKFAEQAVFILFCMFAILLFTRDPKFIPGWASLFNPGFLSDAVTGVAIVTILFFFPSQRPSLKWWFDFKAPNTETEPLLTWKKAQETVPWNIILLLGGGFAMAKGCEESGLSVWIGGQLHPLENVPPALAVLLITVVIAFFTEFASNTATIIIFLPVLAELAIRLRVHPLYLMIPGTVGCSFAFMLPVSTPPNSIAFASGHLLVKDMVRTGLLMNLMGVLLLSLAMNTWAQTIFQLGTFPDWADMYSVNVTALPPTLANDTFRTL", "assay": "[14C] succinate uptake in HEK293 cells overexpressing human NaDC3", "assay_type": "cell-based", "text": "We obtained the compound by screening a library containing more than 50,000 highly diverse lead-like compounds from the Evotec Discovery Library (Evotec SE) and progressing initial hit-through-hit expansion and hit-to-lead optimisation phases. Compound library details are described under https://www.evotec.com/en/execute/drug-discovery-services/hit-identification (accessed on 5 August 2022). We used [14C] citrate uptake assays with HEK293 cells overexpressing recombinant human NaCT (HEK-NaCT). For confirmation, we measured citrate uptake using HepG2 cells which endogenously express NaCT. Furthermore, we measured activity on mouse Nact in a similar assay system using HEK293 cells recombinantly expressing murine Nact (HEK-Nact). We then tested the selectivity of selected compounds with another transporter of the same family—NaDC3. Selectivity was determined by a succinate uptake assay for NaDC3 using HepG2 cells or using HEK293 cells overexpressing recombinant human NaDC3.\nFor radiometric [14C] succinate uptake assays, we applied HEK cells overexpressing human NaDC3 and measured according to the procedure described previously, with a modified incubation buffer of HBSS buffer, supplemented with 20 mM HEPES, pH 7.4 and positive control 2,2-Dimethylsuccinic acid (Sigma-Aldrich, St. Louis, MO, USA)."}, "[1]": {"tested_on": "fatty acid synthesis in HepG2 cells", "assay": "Fatty acid synthesis assay ([14C] citrate incorporation) in HepG2 cells", "assay_type": "cell-based, human", "method": "(§1) We performed the fatty acid synthesis assay in HepG2 cells. We seeded cells into black clear-bottom 96-well plates (Corning 3340 cell plate) 75,000/well and incubated at 37 °C. After 16–24 h, we washed the plates once with 100 µL PBS (+CaCl2 +MgCl2) and added 50 µL assay medium ([…] containing 11 mM glucose, 10 mM HEPES, and 1 nM insulin) per well. Then, we applied test substances in assay medium (10 µL, 5% DMSO) and incubated for 20 min at 37 °C. Thereafter, we added 10 µL assay medium containing [14C] citrate (final concentration 50 µM) and PrestoBlue reagent (1× final concentration; Thermo Fisher Scientific, Waltham, MA, USA) and incubated for 180 min (37 °C, 5% CO2). We measured cell viability (ViewLux instrument, Perkin Elmer). We removed medium by vacuum aspiration and washed cells once with 100 µL PBS (+CaCl2 +MgCl2). We lysed cells with 50 µL lysis buffer (0.1 N NaOH, 0.1 % Triton X-100) and sealed plates with Tape Pads and vortexed. For the saponification reaction, we incubated plates for 16–24 h at 70 °C in a humidified environment. Then, we removed seals and added 200 µL 0.1 N HCl to neutralise the pH. We transferred 150 µL from each into corresponding wells of a 96-well Flash plate (Perkin Elmer) and sealed with TopSeal A (Perkin Elmer). We incubated plates for 4 h at 70 °C and for at least 3 h at room temperature in the dark. We measured [14C] radioactivity (microbeta2, Perkin Elmer). For control samples, we applied 50 mM unlabelled citrate or C75 (Sigma-Aldrich, St. Louis, MO, USA, C5490)."}, "[2]": {"assay": "Viability (PrestoBlue) / cytotoxicity in HepG2 cells", "assay_type": "cell-based", "settings": "human, parallel to fatty acid synthesis assay", "method": "as §1, with “We incubated plates for 4 h at 70 °C and for at least 3 h at room temperature in the dark.” left out, “For control samples, we applied 50 mM unlabelled citrate or C75 (Sigma-Aldrich, St. Louis, MO, USA, C5490).” left out"}, "DIO mice": {"tested_on": "DIO mice", "assay": "Short-term tolerability studies in the DIO mouse model", "assay_type": "in vivo", "text": "Next, we tested the functional activity of ETG-5773 in vivo to establish whether the effects on in vitro citrate uptake and FAS were physiologically relevant. […] Therefore, we applied pair-fed control groups to explore the pharmacological actions on metabolism without interference from food-intake effects.\n[…] […] The potential for off-target effects on feeding behaviour provided the rational for including pair-fed control groups."}}, "data": [{"smiles": "O=C(Nc1cc(Cl)cc(C(F)(F)F)c1)OCCC(F)(F)F", "note": "[ETG-5773]", "values": [{"measurement": "IC50", "setting": "human NaDC3 (SLC13A3); HEK293 overexpressing human NaDC3, succinate substrate", "result": "> 20", "unit": "µM"}, {"measurement": "Selectivity for NaCT against NaDC3", "setting": "human NaDC3 (SLC13A3); NaCT citrate uptake vs NaDC3 succinate uptake", "result": "more than 100 fold"}, {"measurement": "IC50 difference in fatty acid synthesis versus PF-06649298", "setting": "[1]; ETG-5773 compared to PF-06649298, HepG2", "result": "around 40 fold"}, {"measurement": "IC50", "setting": "[1]; Homo sapiens, HepG2, [14C] citrate incorporation, read-out: IC50 fatty acid synthesis, HepG2", "result": 1, "unit": "µM"}, {"measurement": "IC50 at 180 min", "setting": "[2]", "result": "> 50", "unit": "µM"}, {"measurement": "Tolerability of the selected dose", "setting": "DIO mice; 15 mg/kg twice daily", "result": "well tolerated"}, {"measurement": "Food intake", "setting": "DIO mice; preliminary short-term tolerability studies, DIO mouse model", "result": "reduced food intake"}]}]}
